Where two headings read alike, the source gives them in different places.

What all share (assay type): cell-based
Series [1] concerns Giardia intestinalis trophozoites. The series is described as follows: In vitro assay on trophozoite form of Giardia intestinalis (resazurin, 48 h). The conditions noted are these: for IC50: Giardia duodenalis, trophozoites, 48 h, read-out: G. intestinalis IC50. The method, then: Trophozoites of Giardia (strain ATCC® 203333) were grown in modified TYI-S-33 medium at pH 7.0, supplemented with 10% heat-inactivated fetal calf serum and 0.5 g bovine bile (Sigma-Aldrich, St Louis, MO, USA), in 20 mL screw-cap culture vials. The assay was carried out according to a previously described method. Detachment of trophozoites for preparation of inoculant was achieved by chilling the cultures on ice for 20 min. Trophozoites (5 × 10^4 parasites/well) were cultured in 96-well plastic plates (Sarstedt, Nümbrecht, Germany). Compounds were dissolved in DMSO. […] To evaluate cell viability, the fluorescence intensity (535 nm-excitation wavelength- and 590 nm-emission wavelength) was determined with a fluorimeter Infinite 200 (Tecan i-Control, Tecan Ibérica Instrumentation S.L., Barcelona, Spain) to calculate the growth inhibition rate (%). All tests were carried out in triplicate. Metronidazole was used as a reference drug. […] All values were expressed as means ± standard error of the mean (S.E.M.). Statistically significant differences between treated and control samples were tested by one-way analysis of variance (ANOVA).
For orientation: Resazurin is reduced to fluorescent resorufin, in cell work by metabolically active cells.

The nature of series [2]: Cytotoxicity assay on murine macrophages (resazurin, 48 h). To be noted: mouse, J774 cell line, 48 h. The method, then: (§1) A., Madrid, Spain) at 37 °C and 5% CO2 air atmosphere. The assay was carried out according to a previously described method. […] Growth controls and signal-to-noise were also included. Afterward, a volume of 20 μL of 2.5 mM resazurin solution in PBS was added, and plates were placed again in the incubator for another 3 h to evaluate cell viability. The reduction of resazurin was determined by fluorometry as in the promastigote assay. Each concentration was assayed in triplicate. […] All values were expressed as means ± standard error of the mean (S.E.M.). Statistically significant differences between treated and control samples were tested by one-way analysis of variance (ANOVA).

The test system of series [3] is murine macrophage J774 cell line. The description is as above. To be noted: for SI: selectivity index (CC50/IC50): J774 macrophages vs G. intestinalis, pure flavonoids (Table 4). The method, then: as §1
[4] abbreviates: J774 macrophage cell line, pure flavonoids.

As usually defined, the IC50 is the concentration that gives 50% inhibition. Broadly, the CC50 is the concentration that lowers cell viability or growth by half. Regarding `COc1cc(O)c(OC)c(O)c1C(=O)/C=C/c1cccc(O)c1` [Compound 2, 2′,4′,3-Trihydroxy-3′,6′-dimethoxychalcone], the IC50 in series [1] (pure flavonoids) was found to be 47.7 ± 1.2 µM. It took 184 ± 2.6 µM to reach half-maximal cytotoxicity in series [2] (setting [4]) (CC50 at 48 h). Also, in series [3], the “SI: selectivity index (CC50/IC50)” value is 3.9.

On to `COc1cc(O)cc(/C=C/C(=O)c2c(O)cc(O)cc2OC)c1` [Compound 3, 2′,4′,3-Trihydroxy-6′,5-dimethoxychalcone], for which the IC50 in series [1] (pure flavonoids) came to 6 ± 0.3 µM. This molecule also came in with a CC50 at 48 h in series [2] (setting [4]) of 12 ± 0.1 µM.

As to `COc1cc(OC)c(C(=O)/C=C/c2ccccc2)c(O)c1O` [Compound 12, 2′,3′-dihydroxy-4′,6′-dimethoxychalchone], the concentration for half-maximal inhibition (IC50) in series [1] (pure flavonoids) stood at 7.3 ± 0.6 µM. Also, the CC50 at 48 h in series [2] (setting [4]) was 25.3 ± 0.4 µM. Also, in series [3], the “SI: selectivity index (CC50/IC50)” value stood at 3.5.

Regarding `COc1cc(O)cc(O)c1C(=O)CCc1ccccc1` [Compound 16, uvangoletin], the IC50 in series [1] (pure flavonoids) came to 70.5 ± 0.3 µM. Also, the CC50 at 48 h in series [2] (setting [4]) was more than 367 µM. Further, in series [3], the “SI: selectivity index (CC50/IC50)” value was more than 5.2.

As to `COc1cc(/C=C/C(=O)c2c(O)cc(O)cc2OC)ccc1O` [Compound 14, 2′,4′,4-trihydroxy-3,6′-dimethoxychalchone], the IC50 in series [1] (pure flavonoids) was found to be 10.4 ± 0.2 µM. This molecule also had a CC50 at 48 h in series [2] (setting [4]) of 16.5 ± 0.03 µM. Besides, the “SI: selectivity index (CC50/IC50)” value in series [3] is recorded as 1.6.

In the case of `COc1cccc(C2CC(=O)c3c(OC)cc(OC)cc3O2)c1` (stereo not drawn) [Compound 24, 5,7,3′-trimethoxyflavanone], the 50% inhibitory concentration (IC50) in series [1] (pure flavonoids) was 49.3 ± 0.9 µM. The molecule further yielded a CC50 at 48 h in series [2] (setting [4]) of 144 ± 2.3 µM. Further, the “SI: selectivity index (CC50/IC50)” value in series [3] turned out to be 2.9.

`COc1cc(O)cc(O)c1C(=O)/C=C/c1cccc(O)c1` [Compound 1, 2′,4′,3-Trihydroxy-6′-methoxychalcone]: the IC50 in series [1] (pure flavonoids) came out at 7 ± 0.1 µM. The molecule also showed a CC50 at 48 h in series [2] (setting [4]) of 12.9 ± 0.2 µM. The “SI: selectivity index (CC50/IC50)” value in series [3] came to 1.8.

Regarding EtOH, the “Macrophages CC50” value in series [3] was determined as 7.1 ± 0.6 µg/mL.

For the molecule `COc1cccc(/C=C/C(=O)c2c(O)cc(O)cc2OC)c1` [Compound 7, 2′,4′-dihydroxy-3,6′-dimethoxychalchone], in series [1] (pure flavonoids), the IC50 worked out at 4.7 ± 0.1 µM. For the same molecule, the cytotoxic concentration (CC50) at 48 h in series [2] (setting [4]) stood at 15.7 ± 0.2 µM.

Turning to `Cc1ncc([N+](=O)[O-])n1CCO` [Metronidazole, reference compound], the IC50 in series [1] (extract, fractions and sub-fractions of Piper delineatum leaves) is 0.4 ± 0.1 µg/mL; in series [1] (pure flavonoids), 2.5 ± 0.1 µM. The CC50 at 48 h in series [2] (J774 macrophage cell line, extract, fractions and sub-fractions) is 233 µg/mL; in series [2] (setting [4]), more than 584 µM. In addition, the “SI: selectivity index (CC50/IC50)” value in series [3] is more than 233.

With `COc1cccc(/C=C/C(=O)c2c(OC)cc(O)c(OC)c2O)c1` [Compound 10, 2′,4′-dihydroxy-3,3′,6′-trimethoxychalcone], the IC50 in series [1] (pure flavonoids) was 32.7 ± 1.3 µM. The same molecule returned a CC50 at 48 h in series [2] (setting [4]) of 44.2 ± 0.7 µM. The “SI: selectivity index (CC50/IC50)” value in series [3] is 1.4.

`COc1cccc(/C=C/C(=O)c2c(O)cc(OC)cc2OC)c1` [Compound 9, 2′-hydroxy-3,4′,6′-trimethoxychalchone]: the concentration for half-maximal inhibition (IC50) in series [1] (pure flavonoids) was 10.8 ± 0.1 µM. For the same molecule, in series [2] (setting [4]), the CC50 at 48 h worked out at 22.6 ± 0.5 µM.

Turning to `COc1cc(O)c2c(c1)O[C@H](c1ccc(O)cc1)CC2=O` [Compound 23, sakuranetin], the IC50 in series [1] (pure flavonoids) was 52.4 ± 2.1 µM. Moreover, the CC50 at 48 h in series [2] (pure flavonoids) turned out to be 184 ± 2.3 µM. Also, in series [3], the “SI: selectivity index (CC50/IC50)” value came out at 3.5.

Take `COc1cc(O)cc(/C=C/C(=O)c2c(O)cc(OC)cc2OC)c1` [Compound 4, 2′,3-Dihydroxy-4′,6′,5-trimethoxychalcone]: the IC50 in series [1] (pure flavonoids) was determined as 0.061 ± 0.001 µM. Moreover, the “Antiparasitic potency relative to metronidazole” value in series [1] (IC50 ratio to the reference drug metronidazole) is given as 41 fold. Moreover, the midpoint of cytotoxicity in series [2] (setting [4]), the CC50 at 48 h, lay at 14.2 ± 0.2 µM. In series [3], the “SI: selectivity index (CC50/IC50)” value stood at 233.

Consider `COc1cc(O)cc(O)c1C(=O)/C=C/c1ccccc1` [Compound 8, 2′,4′-dihydroxy-6′-methoxychalchone], for which the IC50 in series [1] (pure flavonoids) was found to be 9.6 ± 0.2 µM. In addition, in series [2] (pure flavonoids), the CC50 at 48 h was 37.8 ± 1.1 µM.

As for `COc1cc(O)cc(/C=C/C(=O)c2c(OC)cc(OC)c(O)c2O)c1` [Compound 11, 2′,3′,5-trihydroxy-4′,6′,3-trimethoxychalcone], in series [1] (pure flavonoids), the IC50 worked out at 22.5 ± 0.8 µM. In addition, the CC50 at 48 h in series [2] (setting [4]) was determined as 48.5 ± 0.8 µM. Moreover, the “SI: selectivity index (CC50/IC50)” value in series [3] is 2.2.

(Values after publication PMC9695682, “Flavonoids from Piper Species as Promising Antiprotozoal Agents against Giardia intestinalis: Structure-Activity Relationship and Drug-Likeness Studies” (Pharmaceuticals, 2022).)
